# According to patent US20220324835A1 (Nurix Therapeutics, Inc., priority 2018, published 2022):
# Legend:
# Cbl-b [1] = target: T1, Cbl-b (Homo sapiens, UniProt Q13191); assay: Cbl-b activity assay (Cbl-b inhibition assay), TR-FRET of Cbl-b interaction with UbcH5B-Ub; format: biochemical; details: assay buffer with 100 mM NaCl, 60 nM Src kinase
# Procedure, shortened: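 Compound-treated Cbl-b was incubated 1.5 h with Src kinase (60 nM final; 30 nM for asterisked values, which also used 50 mM instead of 100 mM NaCl), 1 mM ATP and 5 mM MgCl2. Binding to fluorescent Ub-loaded UbcH5B (C85K mutant) was then read by TR-FRET after 1 h more.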
# T-cell [2] = assay: IL-2 secretion from T-cells co-stimulated with anti-CD3 and anti-CD28 antibody (Biological Example 2); format: cell-based, human; details: Homo sapiens, T-cell; for fold induction at 4 µM: 4 μM Cbl-b inhibitor
# Procedure, shortened: (§1)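 Values are fold-change over baseline: readings (IL-2 release, CD25 staining) from inhibitor-treated T-cells divided against untreated cells […]. No detailed procedure stated.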
# T-cell [3] = assay: CD25 cell surface staining on T-cells co-stimulated with anti-CD3 and anti-CD28 antibody (Biological Example 2); format: cell-based, human; details: Homo sapiens, T-cell; for fold induction at 4 µM: 4 μM Cbl-b inhibitor
# Procedure, shortened: as §1
# Cbl-b [4] = target: T1, Cbl-b; assay: Cbl-b inhibition assay (Cbl-b activity assay, FRET, Biological Example 1; 100 mM NaCl, 60 nM Src kinase); format: biochemical
# Procedure, shortened: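 Binding-based Cbl-b activity assay. Src-phosphorylated, N-terminally biotin-Avi-tagged Cbl-b recruits labelled UbcH5B-Ub, and proximity to streptavidin-terbium yields FRET.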
# T-cell [5] = assay: IL-2 secretion from T-cells stimulated with anti-CD3 antibody alone (Biological Example 2); format: cell-based, human; details: T-cell; for fold induction at 8 µM: 8 μM Cbl-b inhibitor
# T-cell [6] = assay: CD25 cell surface staining on T-cells stimulated with anti-CD3 antibody alone (Biological Example 2); format: cell-based, human; details: T-cell; for fold induction at 8 µM: 8 μM Cbl-b inhibitor
# [7] = fold change over baseline, 0.3 μM Cbl-b inhibitor, primary human total T-cells, read-out: IL-2 secretion Anti-CD3/Anti-CD28 stimulation
# [8] = fold change over baseline, 1 μM Cbl-b inhibitor, primary human total T-cells, read-out: IL-2 secretion Anti-CD3/Anti-CD28 stimulation
# [9] = fold change over baseline, 0.3 μM Cbl-b inhibitor, primary human total T-cells, read-out: CD25 staining Anti-CD3/Anti-CD28 stimulation
# [10] = fold change over baseline, 1 μM Cbl-b inhibitor, primary human total T-cells, read-out: CD25 staining Anti-CD3/Anti-CD28 stimulation
# [11] = upper bound stated in text lists, read-out: IC50 values in the Cbl-b inhibition assay of Biological Example 1
# [12] = fold change over baseline, 1 μM Cbl-b inhibitor, primary human total T-cells, read-out: IL-2 secretion Anti-CD3 stimulation
# [13] = fold change over baseline, 1 μM Cbl-b inhibitor, primary human total T-cells, read-out: CD25 staining Anti-CD3 stimulation
# [14] = fold change over baseline, primary human total T-cells, read-out: IL-2 secretion Anti-CD3/Anti-CD28 stimulation
# [15] = fold change over baseline, primary human total T-cells, read-out: CD25 staining Anti-CD3/Anti-CD28 stimulation
# [16] = fold change over baseline, primary human total T-cells, read-out: IL-2 secretion Anti-CD3 stimulation
# [17] = fold change over baseline, primary human total T-cells, read-out: CD25 staining Anti-CD3 stimulation
# [18] = read-out: IL-2 secretion, Anti-CD3/Anti-CD28 stimulation, fold change over baseline
# [19] = read-out: CD25 staining, Anti-CD3/Anti-CD28 stimulation, fold change over baseline
# [20] = Homo sapiens, read-out: IL-2 secretion, Anti-CD3 stimulation, fold change over baseline
# [21] = Homo sapiens, read-out: CD25 staining, Anti-CD3 stimulation, fold change over baseline
# T1 sequence (Q13191 36-427): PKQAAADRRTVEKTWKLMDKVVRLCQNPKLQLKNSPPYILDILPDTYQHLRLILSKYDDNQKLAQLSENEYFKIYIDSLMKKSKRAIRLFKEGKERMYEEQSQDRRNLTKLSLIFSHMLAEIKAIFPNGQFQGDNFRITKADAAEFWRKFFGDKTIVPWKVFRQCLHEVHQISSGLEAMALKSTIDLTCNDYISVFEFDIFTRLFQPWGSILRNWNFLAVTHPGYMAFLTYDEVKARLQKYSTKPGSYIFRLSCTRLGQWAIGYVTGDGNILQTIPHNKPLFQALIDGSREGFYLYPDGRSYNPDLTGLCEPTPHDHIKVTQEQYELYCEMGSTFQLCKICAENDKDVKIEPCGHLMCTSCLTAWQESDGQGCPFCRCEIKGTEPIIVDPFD
SMILES,IC50 (Cbl-b [1]; read-out: Cbl-b activity IC50) [µM],fold induction at 0.3 µM (T-cell [2]; [7]),fold induction at 1 µM (T-cell [2]; [8]),fold induction at 0.3 µM (T-cell [3]; [9]),fold induction at 1 µM (T-cell [3]; [10]),IC50 (Cbl-b [4]; [11]) [nM],fold induction at 1 µM (T-cell [5]; [12]),fold induction at 1 µM (T-cell [6]; [13]),fold induction at 4 µM (T-cell [2]; [14]),fold induction at 4 µM (T-cell [3]; [15]),fold induction at 8 µM (T-cell [5]; [16]),fold induction at 8 µM (T-cell [6]; [17]),fold induction at 0.3 µM (T-cell [2]; [18]),fold induction at 1 µM (T-cell [2]; [18]),fold induction at 0.3 µM (T-cell [3]; [19]),fold induction at 1 µM (T-cell [3]; [19]),fold induction at 1 µM (T-cell [5]; [20]),fold induction at 1 µM (T-cell [6]; [21]),IC50 (Cbl-b [1]; Cbl-b activity IC50 (μM)) [µM],IC50 (Cbl-b [4]; IC50 values in the Cbl-b inhibition assay of Biological Example 1) [nM]
"Cc1cc(C(=O)Nc2cccc(C3(C(F)(F)c4nncn4C)CC3)c2)nc(C2CC2)n1 [Compound 346, 2-cyclopropyl-N-(3-{1-[difluoro(4-methyl-4H-1,2,4-triazol-3-yl)methyl]cyclopropyl}phenyl)-6-methylpyrimidine-4-carboxamide]",< 0.1,1.01 to 2.5,2.51 to 5,1.01 to 1.3,1.01 to 1.3,≤ 100,0.101 to 0.15,0.601 to 0.8,,,,,,,,,,,,
"Cn1cnnc1CC1(c2cccc(NC(=O)c3cc(C4CC4)nc(C4CC4)n3)c2)COC1 [Compound 347, 2,6-dicyclopropyl-N-(3-(3-((4-methyl-4H-1,2,4-triazol-3-yl)methyl)oxetan-3-yl)phenyl)pyrimidine-4-carboxamide]",< 0.1,2.51 to 5,> 7.5,1.01 to 1.3,1.01 to 1.3,≤ 100,0.151 to 0.2,> 1,> 7.5,1.31 to 1.5,> 0.201,> 1,,,,,,,,
"CN1CCN(c2cc(C(=O)Nc3cccc(C4(Cc5nncn5C)COC4)c3)nc(C3CC3)n2)CC1 [Compound 348, 2-Cyclopropyl-N-(3-(3-((4-methyl-4H-1,2,4-triazol-3-yl)methyl)oxetan-3-yl)phenyl)-6-(4-methylpiperazin-1-yl)pyrimidine-4-carboxamide]",< 0.1,2.51 to 5,> 7.5,1.31 to 1.5,1.31 to 1.5,≤ 100,> 0.201,0.801 to 1,,,,,,,,,,,,
"C[C@H](Cc1nncn1C)c1cc(NC2CCC2)nc(N2Cc3c(cccc3C(F)(F)F)C2=O)c1 [Compound 351, 2-[6-(cyclobutylamino)-4-[(2R)-1-(4-methyl-4H-1,2,4-triazol-3-yl)propan-2-yl]pyridin-2-yl]-4-(trifluoromethyl)-2,3-dihydro-1H-isoindol-1-one]",0.1 to 0.3,1.01 to 2.5,1.01 to 2.5,1.01 to 1.3,1.01 to 1.3,≤ 300,< 0.05,0.601 to 0.8,1.01 to 2.5,1.01 to 1.3,0.151 to 0.2,> 1,,,,,,,,
"C[C@H](Cc1nncn1C)c1cc(OC2COC2)nc(N2Cc3c(cccc3C(F)(F)F)C2=O)c1 [Compound 354, 2-{4-[(2R)-1-(4-methyl-4H-1,2,4-triazol-3-yl)propan-2-yl]-6-(oxetan-3-yloxy)pyridin-2-yl}-4-(trifluoromethyl)-2,3-dihydro-1H-isoindol-1-one]",0.1 to 0.3,1.01 to 2.5,1.01 to 2.5,1.01 to 1.3,1.01 to 1.3,≤ 300,0.101 to 0.15,0.601 to 0.8,5 to 7.5,1.31 to 1.5,> 0.201,> 1,,,,,,,,
"C[C@H](Cc1nncn1C)c1cc(OCC(F)F)nc(N2Cc3c(cccc3C(F)(F)F)C2=O)c1 [Compound 356, (R)-2-(6-(2,2-difluoroethoxy)-4-(1-(4-methyl-4H-1,2,4-triazol-3-yl)propan-2-yl)pyridin-2-yl)-4-(trifluoromethyl)isoindolin-1-one]",< 0.1,2.51 to 5,2.51 to 5,1.01 to 1.3,1.01 to 1.3,≤ 100,0.151 to 0.2,0.801 to 1,> 7.5,1.31 to 1.5,> 0.201,> 1,,,,,,,,
"CN1C2CCC1CN(c1cc3c(c(C(F)(F)F)c1)CN(c1cccc(C4(Cc5nncn5C)COC4)c1)C3=O)C2 [Compound 388, 2-(3-(3-((4-Methyl-4H-1,2,4-triazol-3-yl)methyl)oxetan-3-yl)phenyl)-6-(8-methyl-3,8-diazabicyclo[3.2.1]octan-3-yl)-4-(trifluoromethyl)isoindolin-1-one]",< 0.1,,,,,≤ 100,,,,,,,2.51 to 5,5 to 7.5,1.01 to 1.3,1.01 to 1.3,0.151 to 0.2,> 1,,
"Cn1cnnc1CC1(c2cccc(NC(=O)c3nc(C(F)(F)F)cs3)c2)COC1 [Compound 495, N-(3-{3-[(4-methyl-1,2,4-triazol-3-yl)methyl]oxetan-3-yl}phenyl)-4-(trifluoromethyl)-1,3-thiazole-2-carboxamide]",,,,,,,,,,,,,1.01 to 2.5,2.51 to 5,1.01 to 1.3,1.01 to 1.3,< 0.05,0.601 to 0.8,0.301 to 1,≤ 1000
"Cn1cnnc1CC1(c2cccc(N3Cc4c(cc(CN5C6CCC5CC6)cc4C(F)(F)F)C3=O)c2)COC1 [Example 555, 6-((7-azabicyclo[2.2.1]heptan-7-yl)methyl)-2-(3-(3-((4-methyl-4H-1,2,4-triazol-3-yl)methyl)oxetan-3-yl)phenyl)-4-(trifluoromethyl)isoindolin-1-one]",< 0.1,,,,,≤ 100,,,,,,,> 7.5,> 7.5,1.51 to 1.75,1.51 to 1.75,> 0.201,> 1,,
"Cn1cnnc1CC1(c2cccc(N3Cc4c(cc(CN5C6CCCC5CC6)cc4C(F)(F)F)C3=O)c2)COC1 [Example 556, 6-((8-azabicyclo[3.2.1]octan-8-yl)methyl)-2-(3-(3-((4-methyl-4H-1,2,4-triazol-3-yl)methyl)oxetan-3-yl)phenyl)-4-(trifluoromethyl)isoindolin-1-one]",< 0.1,,,,,≤ 100,,,,,,,> 7.5,> 7.5,> 1.76,> 1.76,> 0.201,> 1,,
